Results published in patent publication US20040077634A1, “Treatment of diseases characterized by excessive or insufficient cell death” (priority 2001, published 2004).

Experiments:
MCF-casp3 cells = experiment: TNF-induced cell death of MCF-casp3 cells
Procedure: The ability of compound f to inhibit cell death was examined in MCF-neo and MCF-casp3 cells. […] To analyse the mechanism of the action of compound f in alive cells, MCF-casp3 cells were treated with TNF (5 ng/ml) in the presence of 50 μM compound f and the activity of caspase-3-like proteases was measured by a DEVDase enzyme assay.

[1] = system: DEVDase (caspase-3-like protease); experiment: Inhibition of DEVDase in cytochrome c/dATP-activated Hela cytosolic extract (method 1); assay type: biochemical
Procedure: Hela cells are grown in large petri dishes until subconfluency. Cells are then harvested and washed in PBS. The cell pellet is resuspended in equal volumes of ice-cold isotonic lysisbuffer (SCA; 20 mM Hepes-KOH pH 7.5, 10 mM KCl, 1.5 mM MgCl2, 1 mM EDTA, 1 mM EGTA, 250 mM sucrose, 1 mM DTT, 10 μg/ml aprotinin, 1 μg/ml leupeptin, 1 μg/ml pepstatin A, 100 μg/ml peta-block), incubated on ice for 30 min and lysed by approx. 30 strokes of a dounce homogenizer. The lysate is then centrifuged at 750 g for 10 min, and the supernatant thereof at 10,000 g for 10 min and at 20,000 g for 30 min. The clarified supernatant is removed carefully and stored in aliquots at −80° C. Activation of endogene caspases is induced by addition of 1 mM dATP and 1 μM horse heart cytochrome c to cytosolic extract (protein concentration; 5-10 mg/ml) in the presence of DEVD-AFC and the compound (final concentration 100 μM). Activated DEVD'ases (AFC release) is measured by fluorometry in 96-well plates at 37° C. After end measurements 2× LSB-Mechaptoethanol are added to the samples for assessment of caspase processing by immunoblot analysis. Percent inhibition is calculated as follows: [formula]

[2] = system: caspase-9, caspase-3 and caspase-7 processing; DFF45/ICAD and PARP cleavage; experiment: Processing of caspases and caspase substrates in Cc/dATP-stimulated cell extract, Western blotting; assay type: biochemical
Procedure: Activation of endogene caspases is induced by addition of 1 mM dATP and 1 μM horse heart cytochrome c to cytosolic extract (protein concentration; 5-10 mg/ml) in the presence of DEVD-AFC and the compound (final concentration 100 μM). Activated DEVD'ases (AFC release) is measured by fluorometry in 96-well plates at 37° C. After end measurements 2× LSB-Mechaptoethanol are added to the samples for assessment of caspase processing by immunoblot analysis.
Next, the effect of the compounds on the processing of caspases and caspase substrates in the in vitro model system was analysed by Western blotting. Caspase-9, caspase-3 and caspase-7 were processed into p35, p17, and p20 active fragments, respectively, in response to Cc/dATP. Accordingly, Cc/dATP induced a threefold induction in DEVDase activity and cleavage of the caspase-3 substrates DFF45/ICAD and PARP.

recombinant caspase-3 = target: T1, recombinant caspase-3 (Homo sapiens, UniProt P42574); experiment: Recombinant caspase-3 activity, cleavage of DEVD-AFC; assay type: biochemical; conditions: 25 to 100 μM; DEVD-AFC substrate
T1 sequence (P42574 29-175 limits assumed): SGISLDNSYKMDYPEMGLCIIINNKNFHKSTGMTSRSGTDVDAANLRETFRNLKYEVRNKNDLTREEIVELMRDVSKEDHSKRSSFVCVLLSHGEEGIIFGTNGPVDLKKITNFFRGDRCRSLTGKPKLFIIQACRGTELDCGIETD
T1 sequence (P42574 176-277 limits assumed): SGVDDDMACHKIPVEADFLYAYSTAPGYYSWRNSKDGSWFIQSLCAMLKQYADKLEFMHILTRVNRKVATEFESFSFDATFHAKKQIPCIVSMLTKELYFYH
Procedure: To test if compounds a, f, and g were specific caspase inhibitors, recombinant caspase-3 and caspase-9 were incubated with the three compounds and the enzymatic activities of caspases were monitored by analysing the cleavage of the caspase-3 substrate DEVD-AFC or the caspase-9 substrate LEHD-AFC, respectively.

Compound: O=C(Nc1cccc(C(F)(F)F)c1)Nc1cc(Cl)ccc1C(=O)O [Compound f, [N-(2-Carboxy-5-chlorophenyl)-N′-(3-trifluoromethylphenyl)]urea]
- cell death induced by TNF (MCF-casp3 cells; 1 ng/ml TNF, 50 μM): completely blocked
- protection against TNF-induced cell death (MCF-casp3 cells; 5 ng/ml TNF, 50 μM): protection was still significant
- inhibition of TNF-induced cell death (MCF-casp3 cells; 10 ng/ml TNF): no inhibition
- inhibition of the DEVDase activity (dose dependence) ([1]; cell extracts stimulated with Cc/dATP): dose-dependent inhibition
- % Inhibition ([1]; compound final concentration 100 μM, 1 mM dATP and 1 μM cytochrome c, DEVD-AFC): 94%
- processing of caspase-9 ([2]; 10 μM, compared with the vehicle control): slightly more procaspase-9 remained unprocessed
- processing of caspase-9 ([2]; 100 μM): almost completely inhibited
- inhibition of caspase-9, -3 and -7 processing and DFF45/ICAD and PARP cleavage ([2]; cell extracts stimulated with Cc/dATP, Western blot, dose dependence): dose-dependent inhibition
- inhibition of recombinant caspase-3 activity (recombinant caspase-3): failed to inhibit
